# Reference: US20060088475A1, “Self-immolative magnetic resonance imaging contrast agents sensitive to beta-glucuronidase” (Northwestern University, priority 2004, published 2006)
# Tests used:
# [1] = phenol of the linker; cited from earlier work
# [2] = T1 relaxivity at 60 MHz, 37° C. (inversion recovery, Gd(III) concentration by ICP-MS); type: physicochemical; conditions: for relaxivity r1 / increase in relaxivity on going from anion mimic to human serum: 37° C.; for decrease of relaxivity on addition of carbonate to the buffers: 24 mM carbonate added to MOPS or phosphate/BSA buffer; for decline of relaxivity in anion extracellular mimic: anion extracellular mimic (100 mM NaCl, 0.9 mM Na2HPO4, 30 mM NaHCO3, 0.13 mM sodium citrate, 2.3 mM sodium lactate) versus carbonate-containing buffers; for increase in relaxivity on going from anion mimic to human serum: male human blood serum versus extracellular anion mimic
# Procedure: A 4 mM stock solution of either 1 or 2 in the appropriate buffer was diluted to give 500 μL each of seven approximate concentrations for each run: 0, 0.05, 0.15, 0.3, 0.5, 1.0, and 2.0 mM. The T1 of each concentration was determined using an inversion recovery pulse sequence with appropriate recycle delays on a Bruker mq60 Minispec. This instrument has a proton Larmor frequency of 60 MHz and operates at 37° C. The resulting curves were fit to a monoexponential function to obtain T10.10 μL of each sample was digested in concentrated nitric acid, diluted with water and analyzed for exact Gd(III) concentration using ICP-MS. The reciprocal of the longitudinal relaxation time was plotted against the concentration obtained from ICP-MS and fit to a straight line. All lines fit with R^2>0.998. This was performed for each buffer in duplicate. The buffers were all made to have the appropriate pH at 37° C. and remade if the pH had drifted more than 0.05 pH units upon storage. Anion mimic and carbonate containing buffers were made fresh daily.
# [3] = Determination of q via Eu(III) phosphorescence lifetimes in H2O and D2O; type: physicochemical
# Procedure: Determination of q: Europium(III) compound 4 was dissolved in H2O and D2O. The emission was monitored at 614 nm with excitation at 394 nm on a Hitachi F4500 fluorometer operating in Phosphorescence Lifetime (short) mode. The shortest lifetime measurable with this instrument is about 0.3 ms. Fifteen scans were averaged and fit to a monoexponential decay to give phosphorescent lifetimes. T(D2O)=1.274 ms; T (H2O)=0.527 ms. Using the equation of Supkowski and Horrocks (See, e.g., Supkowski and Horrocks, Inorg. Chim. Acta 2002, 340, 44-48), q=0.89 while the equation from Beeby et al. ^40generates q=1.04.
# [4] = test system: bovine liver β-glucuronidase; assay: Enzyme catalyzed hydrolysis kinetics monitored by bulk water T1 relaxation (magnetic resonance); type: biochemical; conditions: acetate buffer, over the course of an hour, no enzyme
# Procedure: (§1) General: Bovine liver β-glucuronidase (Type B-1, Sigma G 0251) stability in several buffers was assayed by incubating the enzyme in the desired buffer and sampling its activity at various time intervals using the Sigma quality control assay for β-glucuronidase from bovine liver. It was determined that MOPS and anion mimic (See, e.g., Parker, D. In Crown Compounds: Towards Future Applications; Cooper, S. R., Ed.; VCH: New York, 1992, pp 51-67) engendered the enzyme with poor stability, while 100 mM phosphate with 0.01% (w/v) bovine serum albumin (BSA), pH=7.4 at 37° C. gave suitable stability (>2 h at 37° C. without loss of activity) provided the enzyme concentration was greater than 0.5 mg/ml. The enzyme was stable for at least 24 h at 37° C. at its native pH of 5.0 in 100 mM acetate buffer. All kinetics measurements were made with 0.2 mM substrate, 1, in 510 μL buffer with either 1.0 mg/ml enzyme (those buffers at pH=7.4) or 0.1 mg/ml enzyme (pH=5.0 acetate buffer). For all buffers except serum (due to its opacity), the kinetics were determined simultaneously by both UV-visible and magnetic resonance. The runs were all continuous assays that are known to give the best data (See, e.g., Marangoni, A. G. Enzyme kinetics: a modern approach; Wiley-Interscience: Hoboken, N.J., 2003; Copeland, R. A. Enzymes: a practical introduction to structure, mechanism, and data analysis; VCH Publishers: New York, N.Y., 1996). Each run was performed in triplicate and two controls, one without enzyme and one without substrate, were also measured. […] This trend is in the opposite direction of the kinetics runs that show an increase in T1.
# (§2) Magnetic Resonance: T1 was determined at intervals of 2 minutes for the first 30 min and 4 minutes for the next 30 min using a saturation recovery (90-T-90) pulse sequence using the Bruker mq60 operating as detailed in the relaxivity section. This sequence is less accurate than the inversion recovery method, but gives faster results. The runs were performed in triplicate. The substrate-only control was also examined in this manner.
# [5] = molecular target: T1, bovine liver β-glucuronidase (Bos taurus, UniProt A3KMY8); assay: as above; type: biochemical
# T1 construct: β-glucuronidase isolated from bovine liver was chosen for the current studies; purchased Sigma G 0251; host or cells: bovine liver (tissue isolate)
# T1 sequence (A3KMY8 1-652): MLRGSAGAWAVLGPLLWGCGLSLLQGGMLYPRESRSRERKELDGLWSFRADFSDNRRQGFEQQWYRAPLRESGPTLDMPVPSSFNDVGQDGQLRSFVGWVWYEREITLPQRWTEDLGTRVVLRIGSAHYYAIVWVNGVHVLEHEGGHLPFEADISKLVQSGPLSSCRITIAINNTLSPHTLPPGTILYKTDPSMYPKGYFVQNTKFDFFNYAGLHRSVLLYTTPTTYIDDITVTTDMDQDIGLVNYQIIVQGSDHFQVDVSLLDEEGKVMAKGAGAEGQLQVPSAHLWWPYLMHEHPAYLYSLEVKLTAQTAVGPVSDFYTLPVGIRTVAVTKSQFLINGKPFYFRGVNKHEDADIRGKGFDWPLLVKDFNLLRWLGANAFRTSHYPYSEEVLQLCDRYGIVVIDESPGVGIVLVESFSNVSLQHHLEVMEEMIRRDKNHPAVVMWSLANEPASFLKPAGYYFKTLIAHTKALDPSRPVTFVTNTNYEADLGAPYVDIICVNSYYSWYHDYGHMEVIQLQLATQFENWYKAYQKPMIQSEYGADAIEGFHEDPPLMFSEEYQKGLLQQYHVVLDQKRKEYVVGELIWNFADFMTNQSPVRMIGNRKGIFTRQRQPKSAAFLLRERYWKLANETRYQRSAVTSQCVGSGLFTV
# Procedure: as §1, §2
# [6] = molecular target: T1, bovine liver β-glucuronidase; assay: Enzyme catalyzed hydrolysis kinetics monitored by UV-visible; type: biochemical; conditions: for initial rate: 0.2 mM 1, 1.0 mg/ml enzyme, pH 7.4, 37° C.
# Procedure: as §1
# UV-visible: The enzymatic hydrolysis of the pyranose from 1 and subsequent linker decomposition generates 4-hydroxy-3-nitrobenzyl alcohol. This compound has a maximum absorbance of 422 nm at pH=7.4. The molar absorptivity, E, was determined in triplicate from 0-0.2 mM, on an HP 8452A diode array spectrometer thermostated to 37° C. For 100 mM phosphate, 0.01% (w/v) BSA, pH=7.4 at 37° C. it is 2840±40 M^−1 cm^−1. For 100 mM phosphate, 24 mM NaHCO3, 0.01% (w/v) BSA, pH=7.4 at 37° C. it is 3010±50 M^−1 cm^−1. […] At pH=5.0 in acetate buffer, the maximum is at 354 nm. This overlaps with substrate, 1, absorption. The kinetics were sampled on the HP 8452A at 37° C. every 20 seconds for an hour. The initial rates for pH=7.4 buffers were determined through a linear fit of the first 10% change in absorbance. For the acetate buffer, only a half-life of conversion is reported. […] 4-hydroxy-3-nitrobenzyl alcohol was also present in the acetate runs as determined by LC-MS using 100 mM acetate pH=5 as solvent A.
# [7] = molecular target: T1, bovine liver β-glucuronidase; assay: LC-MS analysis of the enzyme reaction mixture; type: biochemical; conditions: phosphate buffer with 0.01% BSA, pH=7.4, 37° C., after 24 h
# Procedure: LC-MS. […] The alcohol and 1 are readily distinguished by their absorption spectra (PDA), their appropriate negative mode ESI-MS patterns and through spiking with authentic compound. 2 was more difficult to detect but could be observed using fluorescence. The HPLC method was as follows: 0-10% B over 10 min, hold at 10% B for 15 min, with fluorescence using λex=271 nm, λem=314 nm.
# [8] = 10 mM MOPS, 100 mM NaCl, pH=7.4, 60 MHz
# [9] = 10 mM pyridine, 100 mM sodium chloride buffer, pH=5.0, 60 MHz
# [10] = 100 mM acetate buffer, pH=5.0, 60 MHz
# [11] = 100 mM sodium phosphate, 0.01% (w/v) BSA, pH=7.4, 60 MHz
compound,measurement,setting,value
O=[N+]([O-])c1cc(CO)ccc1O [4-hydroxy-3-nitrobenzyl alcohol],pKa,[1],about 7.5
"CC(O)CN1CCN(CC(=O)[O-])CCN(CC(=O)[O-])CCN(CC(=O)[O-])CC1.[Gd+3] (stereo not drawn) [GdHP-DO3A, reference compound]",relaxivity r1,[2]; [8],2.99 ± 0.44 mM⁻¹ s⁻¹
"NCCN1CCN(CC(=O)[O-])CCN(CC(=O)[O-])CCN(CC(=O)[O-])CC1.[Gd+3] [Compound 2, Gadolinium(III)1-(2-aminoethyl)-4,7,10-(tris-carboxymethyl)-(1,4,7,10-tetrazaacyclododecane)]",relaxivity r1,[2]; [8],comparable to GdHP-DO3A
same,relaxivity r1,[2]; [9],4.16 ± 0.09 mM⁻¹ s⁻¹
same,decrease of relaxivity on addition of carbonate to the buffers,[2]; pH=7.4,remained the same within error
same,relaxivity r1,[2]; [10],2.16 ± 0.04 mM⁻¹ s⁻¹
same,relaxivity r1,[2]; [11],3.68 mM⁻¹ s⁻¹
same,decline of relaxivity in anion extracellular mimic,[2],6%
same,increase in relaxivity on going from anion mimic to human serum,[2],150%
"Europium(III) 1-(4-(2-(1-(4,7,10-tris-carboxymethyl-(1,4,7,10-tetrazaacyclododecyl)))-ethylcarbamoyloxymethyl)-2-nitrophenyl)-β-D-glucopyronuronate [Compound 4]",phosphorescent lifetime T(D2O),"[3]; D2O, excitation 394 nm, emission 614 nm",1.274 ms
same,q (inner-sphere water molecules),"[3]; Eu(III) fluorescence, absence of buffer salts",1
same,phosphorescent lifetime T (H2O),"[3]; H2O, excitation 394 nm, emission 614 nm",0.527 ms
same,q (inner-sphere water molecules),[3]; equation from Beeby et al.,1.04
same,q (inner-sphere water molecules),[3]; equation of Supkowski and Horrocks,0.89
"O=C([O-])CN1CCN(CCNC(=O)OCc2ccc(O[C@@H]3O[C@H](C(=O)O)[C@@H](O)[C@H](O)[C@H]3O)c([N+](=O)[O-])c2)CCN(CC(=O)[O-])CCN(CC(=O)[O-])CC1.[Gd+3] [Compound 1, Gadolinium(III) 1-(4-(2-(1-(4,7,10-tris-carboxymethyl-(1,4,7,10-tetrazaacyclododecyl)))-ethylcarbamoyloxymethyl)-2-nitrophenyl)-β-D-glucopyronuronate]",decrease in T1 of substrate control without enzyme,[4],2%
same,increase in T1 during enzyme incubation (levels off),"[5]; 0.2 mM 1, 0.1 mg/ml β-glucuronidase, acetate buffer pH=5.0, around 35 min",15%
same,increase in T1 during enzyme incubation,"[5]; 0.2 mM 1, 1.0 mg/ml β-glucuronidase, human serum, over one hour, curve not saturated",14%
same,relaxivity r1,[2]; [8],higher value
same,relaxivity r1,[2]; [9],3.89 ± 0.05 mM⁻¹ s⁻¹
same,decrease of relaxivity on addition of carbonate to the buffers,[2]; pH=7.4,20-30%
same,relaxivity r1,[2]; [10],2.53 ± 0.01 mM⁻¹ s⁻¹
same,relaxivity r1,[2]; [11],4.73 mM⁻¹ s⁻¹
same,decrease in relaxivity between the pure compounds (1 to 2),"[2]; acetate buffer, pH=5.0",15%
same,increase in relaxivity from 1 to 2 (dark to bright change),[2]; anion extracellular mimic,17%
same,decline of relaxivity in anion extracellular mimic,[2],22%
same,"relaxivity differential, 1 brighter than 2",[2]; human serum,27%
same,increase in relaxivity on going from anion mimic to human serum,[2],240%
same,drop in relaxivity upon going from 1 to 2,"[2]; phosphate/BSA buffer (same trend as MOPS), pH=7.4",20%
same,initial rate,"[6]; phosphate/BSA (100 mM sodium phosphate, 0.01% BSA)",158 ± 34 nmol product/h/mg enzyme
same,initial rate,[6]; phosphate/BSA/carbonate (24 mM NaHCO3),148 ± 26 nmol product/h/mg enzyme
same,time to complete conversion,"[6]; pH=5 acetate buffer, enzyme concentration 10% of that at pH=7.4",≤ 45 min
same,initial rate at pH=7.4 relative to standard substrate 4-methylumbelliferyl-β-D-glucuronide at pH=5.5,[6]; pH=7.4 versus literature pH=5.5 data,roughly 8%
same,presence of substrate in reaction mixture by LC/MS,[7],disappeared
